According to ChEMBL document CHEMBL5352441, “Modulation of FLT3-ITD and CDK9 in acute myeloid leukaemia cells by novel proteolysis targeting chimera (PROTAC)” (2022):
The source made the active and inactive calls. The rule behind the calls is not given here.

What was measured:
MV4-11 [1] = test: Induction of cell cycle arrest in human MV4-11 cells assessed as accumulation of cells at G2/M phase at 0.02 uM incubated for 16 hrs by PI staining based flow cytometry analysis (reference value: 10.86%); type: functional
MV4-11 [2] = test: Induction of cell cycle arrest in CRBN-deficient human MV4-11 cells assessed as accumulation of cells at sub-G1 phase at 0.004 uM incubated for 16 hrs by PI staining based flow cytometry analysis (reference value: 12.52%); type: functional
[3] = target: Receptor-type tyrosine-protein kinase FLT3 (Homo sapiens) (UniProt P36888); test: Inhibition of human FLT3 assessed as residual activity at 100 nM relative to control
MV4-11 [4] = test: Induction of cell cycle arrest in CRBN-deficient human MV4-11 cells assessed as accumulation of cells at G2/M phase at 0.5 uM incubated for 16 hrs by PI staining based flow cytometry analysis (reference value: 9.34%); type: functional
MV4-11 [5] = test: Induction of cell cycle arrest in CRBN-deficient human MV4-11 cells assessed as accumulation of cells at G2/M phase at 0.02 uM incubated for 16 hrs by PI staining based flow cytometry analysis (reference value: 9.34%); type: functional
MV4-11 [6] = test: Induction of cell cycle arrest in human MV4-11 cells assessed as accumulation of cells at subG1 phase at 2.5 uM incubated for 16 hrs by PI staining based flow cytometry analysis (reference value: 10.51%); type: functional
MV4-11 [7] = test: Induction of cell cycle arrest in CRBN-deficient human MV4-11 cells assessed as accumulation of cells at G2/M phase at 2.5 uM incubated for 16 hrs by PI staining based flow cytometry analysis (reference value: 9.34%); type: functional
MV4-11 [8] = test: Downregulation of Bcl-2 gene expression in human MV4-11 cells incubated for 4 hrs by qRT-PCR analysis; type: functional, cell-based; conditions: dose 0.004-2.5 µM
MV4-11 [9] = test: Induction of cell cycle arrest in human MV4-11 cells assessed as accumulation of cells at S phase at 2.5 uM incubated for 16 hrs by PI staining based flow cytometry analysis (reference value: 26.16%); type: functional
MV4-11 [10] = test: Induction of cell cycle arrest in human MV4-11 cells assessed as accumulation of cells at S phase at 0.02 uM incubated for 16 hrs by PI staining based flow cytometry analysis (reference value: 26.16%); type: functional
MV4-11 [11] = test: Induction of cell cycle arrest in human MV4-11 cells assessed as accumulation of cells at subG1 phase at 0.02 uM incubated for 16 hrs by PI staining based flow cytometry analysis (reference value: 10.51%); type: functional
MV4-11 [12] = test: Downregulation of FLT3 gene expression in human MV4-11 cells at 0.004 to 2.5 uM incubated for 4 hrs by qRT-PCR analysis; type: functional, cell-based; conditions: dose 0.004-2.5 µM
[13] = target: Receptor-type tyrosine-protein kinase FLT3 (Homo sapiens) (UniProt P36888); test: Inhibition of FLT3 signalling pathway in human MV4-11 cells assessed as reduction in STAT5 phosphorylation at Y694 residues at 0.1 to 0.5 uM preincubated for 90 mins with 4-hydroxythalidomide followed by compound addition and further incubated for 16 hrs by immunoblot analysis; type: cell-based; conditions: dose 0.1-0.5 µM
MV4-11 [14] = test: Induction of cell cycle arrest in human MV4-11 cells assessed as accumulation of cells at G1 phase at 0.5 uM incubated for 16 hrs by PI staining based flow cytometry analysis (reference value: 62.97%); type: functional
MV4-11 [15] = test: Induction of cell cycle arrest in CRBN-deficient human MV4-11 cells assessed as accumulation of cells at G1 phase at 2.5 uM incubated for 16 hrs by PI staining based flow cytometry analysis (reference value: 54.05%); type: functional
MV4-11 [16] = test: Induction of cell cycle arrest in CRBN-deficient human MV4-11 cells assessed as accumulation of cells at sub-G1 phase at 0.5 uM incubated for 16 hrs by PI staining based flow cytometry analysis (reference value: 12.52%); type: functional
MV4-11 [17] = test: Induction of cell cycle arrest in CRBN-deficient human MV4-11 cells assessed as accumulation of cells at G1 phase at 0.5 uM incubated for 16 hrs by PI staining based flow cytometry analysis (reference value: 54.05%); type: functional
MV4-11 [18] = test: Induction of cell cycle arrest in CRBN-deficient human MV4-11 cells assessed as accumulation of cells at sub-G1 phase at 0.02 uM incubated for 16 hrs by PI staining based flow cytometry analysis (reference value: 12.52%); type: functional
MV4-11 [19] = test: Induction of cell cycle arrest in CRBN-deficient human MV4-11 cells assessed as accumulation of cells at S phase at 0.1 uM incubated for 16 hrs by PI staining based flow cytometry analysis (reference value: 36.91%); type: functional
MV4-11 [20] = test: Induction of cell cycle arrest in human MV4-11 cells assessed as accumulation of cells at S phase at 0.1 uM incubated for 16 hrs by PI staining based flow cytometry analysis (reference value: 26.16%); type: functional
CCRF-CEM = test: Antiproliferative activity against human CEM cells assessed as cell growth inhibition incubated for 72 hrs by resazurin dye based fluorescence analysis; type: functional
MV4-11 [21] = test: Antiproliferative activity against CRBN-deficient human MV4-11 cells assessed as cell growth inhibition incubated for 72 hrs by resazurin dye based fluorescence analysis; type: functional
MV4-11 [22] = test: Antiproliferative activity against human MV4-11 cells harboring FLT3-ITD mutation assessed as cell growth inhibition incubated for 72 hrs by resazurin dye based fluorescence analysis; type: functional
RS4-11 = test: Antiproliferative activity against human RS4-11 cells assessed as cell growth inhibition incubated for 72 hrs by resazurin dye based fluorescence analysis; type: functional
MV4-11 [23] = test: Induction of cell cycle arrest in CRBN-deficient human MV4-11 cells assessed as accumulation of cells at S phase at 0.5 uM incubated for 16 hrs by PI staining based flow cytometry analysis (reference value: 36.91%); type: functional
MV4-11 [24] = test: Induction of cell cycle arrest in CRBN-deficient human MV4-11 cells assessed as accumulation of cells at S phase at 0.004 uM incubated for 16 hrs by PI staining based flow cytometry analysis (reference value: 36.91%); type: functional
[25] = target: Receptor-type tyrosine-protein kinase FLT3 (Homo sapiens) (UniProt P36888); test: Inhibition of FLT3 autophosphorylation at Y589/591 residue in human MV4-11 cells at 0.1 to 0.5 uM preincubated for 90 mins with 4-hydroxythalidomide followed by compound addition and further incubated for 16 hrs by immunoblot analysis; type: cell-based; conditions: dose 0.1-0.5 µM
[26] = test system: Receptor-type tyrosine-protein kinase FLT3 (Homo sapiens), P36888 [UNDEFINED MUTATION]; test: Inhibition of FLT3 in human MV4-11 cells harboring FLT3-ITD mutation assessed as reduction in ERK1/2 phosphorylation at T202/Y204 residue at 0.004 to 2.5 uM incubated for 16 hrs by immunoblot analysis; type: cell-based; conditions: dose 0.004-2.5 µM
MV4-11 [27] = test: Induction of apoptosis in human MV4-11 cells assessed as activation of caspase 7 at 0.1 to 0.5 uM preincubated for 90 mins with 4-hydroxythalidomide followed by compound addition and further incubated for 16 hrs in presence of Ac-DEVD-AMC by fluorescence microplate reader analysis; type: functional, cell-based; conditions: dose 0.1-0.5 µM
MV4-11 [28] = test: Induction of cell cycle arrest in human MV4-11 cells assessed as accumulation of cells at G2/M phase at 0.5 uM incubated for 16 hrs by PI staining based flow cytometry analysis (reference value: 10.86%); type: functional
MV4-11 [29] = test: Downregulation of MCL-1 gene expression in human MV4-11 cells incubated for 4 hrs by qRT-PCR analysis; type: functional, cell-based; conditions: dose 0.004-2.5 µM

Sequence of Receptor-type tyrosine-protein kinase FLT3 (Homo sapiens) (P36888 whole entry): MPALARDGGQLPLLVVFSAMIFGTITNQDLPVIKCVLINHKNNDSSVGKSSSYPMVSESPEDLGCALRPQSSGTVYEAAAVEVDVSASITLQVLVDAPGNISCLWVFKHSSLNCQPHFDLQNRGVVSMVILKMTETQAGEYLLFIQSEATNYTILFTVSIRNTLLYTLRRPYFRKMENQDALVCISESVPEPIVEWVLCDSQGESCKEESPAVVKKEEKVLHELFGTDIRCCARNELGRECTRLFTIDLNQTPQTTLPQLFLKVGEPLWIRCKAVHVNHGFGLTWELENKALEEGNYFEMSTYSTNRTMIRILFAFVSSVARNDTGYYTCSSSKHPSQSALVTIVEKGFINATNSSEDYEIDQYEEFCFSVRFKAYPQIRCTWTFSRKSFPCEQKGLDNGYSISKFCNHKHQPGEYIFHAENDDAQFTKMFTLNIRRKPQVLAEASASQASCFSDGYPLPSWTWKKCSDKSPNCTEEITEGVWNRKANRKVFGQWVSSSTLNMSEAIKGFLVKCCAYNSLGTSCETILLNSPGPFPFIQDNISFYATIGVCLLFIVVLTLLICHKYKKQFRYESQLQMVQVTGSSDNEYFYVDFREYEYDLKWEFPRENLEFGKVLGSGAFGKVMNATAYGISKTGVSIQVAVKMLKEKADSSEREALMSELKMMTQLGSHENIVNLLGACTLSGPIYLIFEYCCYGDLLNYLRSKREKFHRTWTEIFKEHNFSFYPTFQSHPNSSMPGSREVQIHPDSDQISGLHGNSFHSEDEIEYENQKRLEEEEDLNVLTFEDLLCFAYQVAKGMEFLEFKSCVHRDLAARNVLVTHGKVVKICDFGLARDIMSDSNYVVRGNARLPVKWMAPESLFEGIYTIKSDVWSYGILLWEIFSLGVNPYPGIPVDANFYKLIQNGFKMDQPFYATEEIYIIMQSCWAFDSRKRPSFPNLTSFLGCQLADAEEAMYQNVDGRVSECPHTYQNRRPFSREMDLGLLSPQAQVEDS
Sequence of Receptor-type tyrosine-protein kinase FLT3 (Homo sapiens), P36888 [UNDEFINED MUTATION] (P36888 whole entry, looked up, stated change not applied): as the sequence (P36888 whole entry) above

**Q.** `NC1CCC(Nc2nc(Nc3ccc(N4CCN(CCOCCOCCNC(=O)CNc5cccc6c5C(=O)N(C5CCC(=O)NC5=O)C6=O)CC4)cc3)c3ncn(C4CCCC4)c3n2)CC1` (stereo unspecified) was tested. Which Activity (MV4-11 [1]) did it give?
**A.** 5.22%

**Q.** And the Activity (MV4-11 [2])?
**A.** 12.68%

**Q.** And the Activity [3]?
**A.** 2%

**Q.** What about the Activity (MV4-11 [4]) of the same compound?
**A.** 3.91%

**Q.** And the Activity (MV4-11 [5])?
**A.** 6%

**Q.** And the Activity (MV4-11 [6])?
**A.** 79.82%

**Q.** And the Activity (MV4-11 [7])?
**A.** 4.56%

**Q.** What about the Activity (MV4-11 [8]) of the same compound?
**A.** Dose-Dependent Effect

**Q.** What about the Activity (MV4-11 [9]) of the same compound?
**A.** 34.87%

**Q.** And the Activity (MV4-11 [10])?
**A.** 12.41%

**Q.** What about the Activity (MV4-11 [11]) of the same compound?
**A.** 12.82%

**Q.** What about the Activity (MV4-11 [12]) of the same compound?
**A.** inactive

**Q.** And the inhibition [13]?
**A.** Active

**Q.** What about the Activity (MV4-11 [14]) of the same compound?
**A.** 74.6%

**Q.** What about the Activity (MV4-11 [15]) of the same compound?
**A.** 89.4%

**Q.** What about the Activity (MV4-11 [16]) of the same compound?
**A.** 21.07%

**Q.** What about the Activity (MV4-11 [17]) of the same compound?
**A.** 90.95%

**Q.** And the Activity (MV4-11 [18])?
**A.** 13.43%

**Q.** And the Activity (MV4-11 [19])?
**A.** 6.07%

**Q.** What about the Activity (MV4-11 [20]) of the same compound?
**A.** 6.42%

**Q.** What about the GI50 (CCRF-CEM) of the same compound?
**A.** > 10000 nM

**Q.** And the GI50 (MV4-11 [21])?
**A.** 119 nM

**Q.** What about the GI50 (MV4-11 [22]) of the same compound?
**A.** 47 nM

**Q.** What about the GI50 (RS4-11) of the same compound?
**A.** 1010 nM

**Q.** What about the Activity (MV4-11 [23]) of the same compound?
**A.** 5.13%

**Q.** What about the Activity (MV4-11 [24]) of the same compound?
**A.** 28.88%

**Q.** And the inhibition [25]?
**A.** Active

**Q.** And the inhibition [26]?
**A.** Active

**Q.** And the Activity (MV4-11 [27])?
**A.** inactive

**Q.** And the Activity (MV4-11 [28])?
**A.** 6.85%

**Q.** And the Activity (MV4-11 [29])?
**A.** Dose-Dependent Effect
